Columns and labels:
rat uterus = assay: Effects on the rat uterus in vitro; assay type: cell-based; conditions: dose producing response 50% that of carbachol
Method: (B) effect on the rat uterus in vitro;
The uterine stimulant effect of test compounds was determined in segments of uterus obtained from rats (140-160 g) pretreated subcutaneously with 1 mg/kg of diethylstilbesterol 18 hours before the experiment. The tissues were placed in 10 ml chambers filled with de-Jalon solution at 29° C., were aerated and bubbled with 95% O2 and 5% CO2, and were prepared for isometric recording with force displacement transducers. Preparations were stretched to an initial tension of 1 g and were left undisturbed for 30 minutes. Carbachol (1 mcg/ml) was then added to the bath and a response was recorded. After a ten minute interval the carbachol procedure was repeated. Responses to increasing concentrations of a test compound (0.001 to 10 mcg/ml with one log intervals) were then recorded every 10 minutes. Preparations were washed four times after each response. All doses of compounds were administered in a 0.1 ml volume. Because it has been observed that the magnitude of the second response to carbachol (approximately 10% greater than the first) is close to the maximal response of the tissue, such value was taken as a measure of the sensitivity of a particular segment. Responses to each concentration of the test compound were expressed in terms of percentage of the second response to carbachol and the ED50 (dose producing a response 50% that of carbachol) was calculated graphically.
Activity was scored according to the following scale: […]

tracheal smooth muscle = conditions: in vitro, most mammalian respiratory tracts; cited from earlier work
[1] = test system: motor pathways in the central nervous system; conditions: cited from earlier work
[2] = test system: female reproductive system; conditions: cited from earlier work; for labor / abortion effect: inducing labor, early pregnancy
growth hormone = conditions: rats; cited from earlier work
adrenal glands = conditions: hypophysectomized rats; cited from earlier work
chick rectum = assay: Cascade assay: chick rectum; assay type: cell-based; conditions: in vitro, smooth muscle stimulant ED50 scored
Method: (§1) (A) effects on the rat stomach, rat colon, chick rectum, and rabbit aorta in vitro (cascade assay);
(§2) The smooth muscle stimulant effects of test compounds were determined simultaneously in four different tissues that are known to be reactive to naturally occurring prostaglandins. Segments of rat stomach fundus, rat colon, chick rectum and rabbit aortic strip were obtained as described by: Vane, J. R., Brit. J. Pharmacol., 12: 344 (1957); Regoli, D. and Vane, J. R., Brit. J. Pharmacol., 23: 351 (1964); Mann, M. and West, G. B., Brit. J. Pharmacol., 5: 173 (1950); and Furchgott, R. F. and Bhadrakom, R., J. Pharmacol. Exper. Ther., 108: 129 (1953). One end of each preparation was tied to the bottom of a 10 ml tissue chamber and the other to a force displacement transducer (Grass FT-03) for continuous tension recording. The stomach, colon, and rectum segments were stretched to an initial tension of 1 g, while the aortic strip was subjected to 4 g. All preparations were left undisturbed for 1 hour prior to testing. […]
(§3) Test compounds were diluted from stock solutions so as to administer quantities ranging from 0.0001 to 100,000 ng in a volume of 0.5 ml. […] Maximal increases in tension after each dose were measured and the results were used to plot dose-response curves. […]
(§4) Activity in each tissue was scored according to the following scale: […]

human platelet = assay: Inhibition of human platelet aggregation in vitro; assay type: cell-based; conditions: human platelet rich plasma, collagen-induced
Method: (E) effect on human platelet aggregation in vitro; and
The ability of test compounds to inhibit platelet aggregation was determined by a modification of the turbidometric technique of Born, G. V. R. (Nature, 194: 927 [1962]). Blood was collected from human volunteers, who had not ingested aspirin or aspirin-containing products within the preceding two weeks, in heparinized containers and was allowed to settle for one (1) hour. The platelet rich plasma (prp) supernates were collected and pooled. Siliconized glassware was used throughout.
In a representative assay, 1.9 ml of PRP and 0.2 ml of test compound at the appropriate concentration ([…]), or 0.2 ml of distilled water (control procedure) were placed in sample cuvettes. The cuvettes were placed in a 37° C. incubation block for 15 minutes, and then in a spectrophotometer linked to a strip chart recorder. After 30-60 seconds, 0.2 ml of a solution, prepared by diluting a calf-skin collagen solution 1:9 with Tyrodes' Solution, was added to each cuvette. Platelet aggregation was evidenced by a decrease in optical density.
An ED50 value was then determined graphically.

rabbit aortic strip = assay: Cascade assay: rabbit aortic strip; assay type: cell-based; conditions: in vitro, smooth muscle stimulant ED50 scored
Method: as §1, §2, §3, §4

rat stomach fundus = assay: Cascade assay: rat stomach fundus; assay type: cell-based; conditions: in vitro, smooth muscle stimulant ED50 scored
Method: as §1, §2, §3, §4

rat = assay: Effects on gastric secretion in the rat; assay type: in vivo; conditions: pylorus ligated, 1.5 mg/kg s.c. twice (total 3.0 mg/kg), 4 hours
Method: (F) effect on gastric secretion in the rat;
A procedure based on that described by Lipman, W. (J. Pharm. Pharmacol., 21: 335 [1968]) was used to assess the influence of test compounds on gastric secretion. Rats of one sex weighing 150 to 200 g were randomly divided into groups of six animals each and fasted for 48 hours previous to the experiments, water being available ad libitum. The animals were anesthetized with ether, the abdomen opened through a midline incision, and the pylorus ligated. Test compounds were diluted from stock solution so as to administer a dose of 1.5 mg/kg in a volume equivalent to 1 ml/kg. Subcutaneous injections were applied immediately after surgery and again 2 hours later, so that a total dose of 3.0 mg/kg was administered. Dilutions were made with phosphate buffer (pH 7.38) as recommended by Lee et al. (Prostaglandins, 3: 29 [1973]) in order to insure adequate stability of drugs at the subcutaneous depot. […]
Four hours after pyllric ligation the animals were killed with ether, the cardias ligated, and the stomachs removed. The volume of gastric secretion was measured and the contents centrifuged at 5000 rpm for 10 minutes. […]
Volume and total acid values of the treated group were compared with those of the controls […]. Antisecretory activity was scored according to the following scale: […]

rat colon = assay: Cascade assay: rat colon; assay type: cell-based; conditions: in vitro, smooth muscle stimulant ED50 scored
Method: as §1, §2, §3, §4

Structure (SMILES): CCCCCC(O)/C(=C/[C@@H]1[C@@H](C/C=C\CCCC(=O)O)[C@@H](O)C[C@H]1O)c1ccccc1 (stereo partly drawn) [Example 14, 14-Phenyl-9α,11α,15R,S-trihydroxyprosta-5Z,13E-dien-1-oic acid]
- Rat Uterus: activity value (ED50) (rat uterus): 0 (>10)

Structure (SMILES): CCCCC[C@@H](O)/C(=C/C1CCC(=O)C1C/C=C\CCCC(=O)O)c1ccccc1 (mixture of isomers) [Example 11, dl-14-Phenyl-15R-hydroxy-9-oxoprosta-5Z-13E-dien-1-oic acid]
- Rat Uterus: activity value (ED50) (rat uterus): 0 (>10)

Structure (SMILES): CCCCC[C@H](O)/C=C/[C@@H]1[C@@H](C/C=C\CCCC(=O)O)[C@@H](O)C[C@H]1O [PGF2α]
- effect on tracheal smooth muscle (tracheal smooth muscle): contracts such smooth muscle
- transmission along motor pathways in the central nervous system [1]: facilitates transmission along motor pathways in the central nervous system
- fertility / gestation effect ([2]; female reproductive system): has contragestational effects
- labor / abortion effect [2]: induces spontaneous abortions in early pregnancy

Structure (SMILES): CCCCC[C@H](O)/C=C/[C@H]1[C@H](O)CC(=O)[C@@H]1C/C=C\CCCC(=O)O [PGE2]
- effect on tracheal smooth muscle (tracheal smooth muscle): relax
- labor / abortion effect [2]: produces potent oxytocic effects in inducing labor
- release of the growth hormone (growth hormone): increase the release of the growth hormone
- steroidogenesis in the adrenal glands (adrenal glands): stimulate stereoidogenesis in the adrenal glands

Structure (SMILES): CCCCC[C@@H](O)/C(=C/C1CCC(=O)C1C/C=C\CCCC(=O)OC)c1ccccc1 (mixture of isomers) [Example 8, Methyl dl-14-phenyl-15R-hydroxy-9-oxoprosta-5,13E-dien-1-oate]
- Rat Uterus: activity value (ED50) (rat uterus): 0 (>10)

Structure (SMILES): CCCCC[C@H](O)/C(=C/[C@H]1[C@H](O)CC(=O)[C@@H]1C/C=C\CCCC(=O)OCC)c1ccccc1 [Example 7B, Ethyl-14-Phenyl-11α,15S-dihydroxy-9-oxoprosta-5Z-13E-dien-1-oate]
- Rat Uterus: activity value (ED50) (rat uterus): 0 (>10)

Structure (SMILES): CCCCC[C@@H](O)/C(=C/C1C=CC(=O)C1CCCCCCC(=O)O)c1ccccc1 (stereo partly drawn) [Example 12, 14-Phenyl-15R-hydroxy-9-oxo-ent-prosta-10,13E-dien-1-oic acid]
- Cascade, Rectum: activity value (ED50) (chick rectum): 0 (>10000)
- Platelet Aggregation: activity value (ED50) (human platelet): 1 (>0.1 and ≤1.0)
- Cascade, Aorta: activity value (ED50) (rabbit aortic strip): 0 (>10000)
- Cascade, Stomache: activity value (ED50) (rat stomach fundus): 0 (>10000)
- Rat Uterus: activity value (ED50) (rat uterus): 0 (>10)
- Gastric Secretion: activity value (% decrease in acidity) (rat): 0 (<26)
- Cascade, Colon: activity value (ED50) (rat colon): 0 (>10000)

Structure (SMILES): CCCCCC(O)/C(=C/C1CCC(=O)C1CCCCCCC(=O)OC)c1ccccc1 (racemic) [Example 5, Methyl dl-14-phenyl-15R,S-hydroxy-9-oxoprost-13E-en-1-oate]
- Rat Uterus: activity value (ED50) (rat uterus): 0 (>10)

Structure (SMILES): CCCCC[C@H](O)/C(=C/C1CCC(=O)C1C/C=C\CCCC(=O)OC)c1ccccc1 (mixture of isomers) [Example 9, Methyl dl-14-phenyl-15S-hydroxy-9-oxoprosta-5Z,13E-dien-1-oate]
- Rat Uterus: activity value (ED50) (rat uterus): 0 (>10)

Structure (SMILES): CCCCC[C@@H](O)/C(=C/[C@H]1[C@H](O)CC(=O)[C@@H]1CCCCCCC(=O)O)c1ccccc1 [Example 3, 14-phenyl-11α,15R-dihydroxy-9-oxoprost-13E-en-1-oic acid]
- Rat Uterus: activity value (ED50) (rat uterus): 0 (>10)

Structure (SMILES): CCCCC[C@H](O)/C(=C/[C@H]1[C@H](O)CC(=O)[C@@H]1CCCCCCC(=O)O)c1ccccc1 [Example 2, 14-Phenyl-11α,15S-dihydroxy-9-oxoprost-13E-en-1-oic acid]
- Rat Uterus: activity value (ED50) (rat uterus): 0 (>10)

Structure (SMILES): CCCCC[C@H](O)/C(=C/C1CCC(=O)C1C/C=C\CCCC(=O)O)c1ccccc1 (mixture of isomers) [Example 10, dl-14-Phenyl-15S-hydroxy-9-oxoprosta-5Z,13E-dien-1-oic acid]
- Rat Uterus: activity value (ED50) (rat uterus): 0 (>10)

Source: patent US4149007A, “C14 Phenyl-substituted derivatives of prostaglandin analogues” (Miles Laboratories, Inc., priority 1977, dated 1979)
